Source: ChEMBL document CHEMBL5463729, “Data for DCP probe BAY 1753011” (2023)

Assays:
Conditions in all cases: Compound concentration 10.0 uM
[1] = target: Calcium/calmodulin-dependent protein kinase kinase 2 (Homo sapiens) (UniProt Q96RR4); assay: Inhibition of CaMKK2(h) at 10.0 µM in the Eurofins Kinase panel
[2] = target: Cyclin-dependent kinase-like 4 (Homo sapiens) (UniProt Q5MAI5); assay: Inhibition of CDKL4(h) at 10.0 µM in the Eurofins Kinase panel
[3] = target: Dual specificity protein kinase CLK3 (Homo sapiens) (UniProt P49761); assay: Inhibition of CLK3(h) at 10.0 µM in the Eurofins Kinase panel
[4] = target: Death-associated protein kinase 2 (Homo sapiens) (UniProt Q9UIK4); assay: Inhibition of DAPK2(h) at 10.0 µM in the Eurofins Kinase panel
[5] = target: G protein-coupled receptor kinase 3 (Homo sapiens) (UniProt P35626); assay: Inhibition of GRK3(h) at 10.0 µM in the Eurofins Kinase panel
[6] = target: Homeodomain-interacting protein kinase 4 (Homo sapiens) (UniProt Q8NE63); assay: Inhibition of HIPK4(h) at 10.0 µM in the Eurofins Kinase panel
[7] = target: Insulin-like growth factor 1 receptor (Homo sapiens) (UniProt P08069); assay: Inhibition of IGF-1R(h), activated at 10.0 µM in the Eurofins Kinase panel
[8] = target: Tyrosine-protein kinase JAK3 (Homo sapiens) (UniProt P52333); assay: Inhibition of JAK3(h) at 10.0 µM in the Eurofins Kinase panel
[9] = target: Mitogen-activated protein kinase 10 (Homo sapiens) (UniProt P53779); assay: Inhibition of JNK3(h) at 10.0 µM in the Eurofins Kinase panel
[10] = target: Myosin light chain kinase (Homo sapiens) (UniProt Q32MK0); assay: Inhibition of MLCK(h) at 10.0 µM in the Eurofins Kinase panel
[11] = target: Serine/threonine-protein kinase MRCK gamma (Homo sapiens) (UniProt Q6DT37); assay: Inhibition of MRCKgamma(h) at 10.0 µM in the Eurofins Kinase panel
[12] = target: Serine/threonine-protein kinase pim-1 (Homo sapiens) (UniProt P11309); assay: Inhibition of Pim-1(h) at 10.0 µM in the Eurofins Kinase panel
[13] = target: cGMP-dependent protein kinase 2 (Homo sapiens) (UniProt Q13237); assay: Inhibition of PRKG2(h) at 10.0 µM in the Eurofins Kinase panel
[14] = target: T1, 5-hydroxytryptamine receptor 3A (Homo sapiens) (UniProt P46098)
T1 sequence (whole entry): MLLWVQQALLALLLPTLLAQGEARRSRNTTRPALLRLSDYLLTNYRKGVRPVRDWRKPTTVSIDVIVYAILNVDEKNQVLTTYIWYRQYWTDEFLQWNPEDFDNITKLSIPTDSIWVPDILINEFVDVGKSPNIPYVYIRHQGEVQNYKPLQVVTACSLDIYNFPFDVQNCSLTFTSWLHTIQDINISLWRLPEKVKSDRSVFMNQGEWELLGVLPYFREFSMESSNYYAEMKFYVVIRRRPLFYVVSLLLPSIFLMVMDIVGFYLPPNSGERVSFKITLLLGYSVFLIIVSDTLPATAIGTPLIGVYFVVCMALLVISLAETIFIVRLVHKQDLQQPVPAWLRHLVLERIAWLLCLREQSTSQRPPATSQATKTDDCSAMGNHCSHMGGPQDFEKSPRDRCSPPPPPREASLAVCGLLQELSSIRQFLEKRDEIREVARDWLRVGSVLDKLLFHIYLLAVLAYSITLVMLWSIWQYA

[15] = target: T2, Alpha-2B adrenergic receptor (Homo sapiens) (UniProt P18089)
T2 sequence (whole entry): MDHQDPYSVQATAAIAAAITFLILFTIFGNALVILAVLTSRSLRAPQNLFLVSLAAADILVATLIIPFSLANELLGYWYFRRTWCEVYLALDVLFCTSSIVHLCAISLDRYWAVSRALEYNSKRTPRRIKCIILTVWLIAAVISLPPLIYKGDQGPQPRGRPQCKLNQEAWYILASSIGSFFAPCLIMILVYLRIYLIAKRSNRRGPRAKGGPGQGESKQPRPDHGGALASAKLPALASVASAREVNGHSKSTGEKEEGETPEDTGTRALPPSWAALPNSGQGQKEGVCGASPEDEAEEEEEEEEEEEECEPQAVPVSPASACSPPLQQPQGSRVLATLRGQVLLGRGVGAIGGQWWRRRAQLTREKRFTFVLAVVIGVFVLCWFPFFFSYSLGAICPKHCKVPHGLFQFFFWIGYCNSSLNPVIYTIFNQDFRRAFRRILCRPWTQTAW

[16] = target: Sigma non-opioid intracellular receptor 1 (Homo sapiens) (UniProt Q99720)
[17] = target: T3, Muscarinic acetylcholine receptor M1 (Homo sapiens) (UniProt P11229)
T3 sequence (whole entry): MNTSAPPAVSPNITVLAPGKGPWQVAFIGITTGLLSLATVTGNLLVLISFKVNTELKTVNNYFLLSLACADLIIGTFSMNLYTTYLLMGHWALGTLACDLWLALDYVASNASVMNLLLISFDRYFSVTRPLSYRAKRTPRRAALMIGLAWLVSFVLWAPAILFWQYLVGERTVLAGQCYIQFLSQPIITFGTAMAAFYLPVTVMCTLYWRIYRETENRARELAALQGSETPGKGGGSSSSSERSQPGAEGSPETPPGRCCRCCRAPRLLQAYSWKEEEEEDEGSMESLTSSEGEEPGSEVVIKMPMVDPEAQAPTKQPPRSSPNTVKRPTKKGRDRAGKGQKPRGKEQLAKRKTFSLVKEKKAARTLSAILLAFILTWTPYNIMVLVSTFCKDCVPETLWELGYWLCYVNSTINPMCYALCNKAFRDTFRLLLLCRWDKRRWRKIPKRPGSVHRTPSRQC

[18] = target: T4, 5-hydroxytryptamine receptor 1A (Homo sapiens) (UniProt P08908)
T4 sequence (whole entry): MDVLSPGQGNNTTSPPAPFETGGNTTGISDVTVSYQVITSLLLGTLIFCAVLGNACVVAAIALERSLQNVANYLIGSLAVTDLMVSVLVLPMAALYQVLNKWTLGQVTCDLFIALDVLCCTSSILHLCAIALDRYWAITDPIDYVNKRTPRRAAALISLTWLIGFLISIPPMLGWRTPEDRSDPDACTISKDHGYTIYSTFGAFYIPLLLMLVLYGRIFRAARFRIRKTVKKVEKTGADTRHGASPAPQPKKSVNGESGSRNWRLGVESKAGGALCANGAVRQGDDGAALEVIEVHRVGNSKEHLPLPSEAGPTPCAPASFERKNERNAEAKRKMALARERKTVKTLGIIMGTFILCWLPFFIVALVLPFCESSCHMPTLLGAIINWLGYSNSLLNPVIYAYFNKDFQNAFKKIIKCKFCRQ

[19] = target: Sodium-dependent dopamine transporter (Homo sapiens) (UniProt Q01959)

Sigma non-opioid intracellular receptor 1 (Homo sapiens), sequence (Q99720 whole entry): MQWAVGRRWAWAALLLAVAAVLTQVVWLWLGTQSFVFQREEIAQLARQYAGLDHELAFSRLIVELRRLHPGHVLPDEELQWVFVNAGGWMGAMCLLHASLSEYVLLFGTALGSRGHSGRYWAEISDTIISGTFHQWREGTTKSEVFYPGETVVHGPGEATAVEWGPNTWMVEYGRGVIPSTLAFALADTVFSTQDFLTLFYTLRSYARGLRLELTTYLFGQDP
G protein-coupled receptor kinase 3 (Homo sapiens), sequence (P35626 whole entry): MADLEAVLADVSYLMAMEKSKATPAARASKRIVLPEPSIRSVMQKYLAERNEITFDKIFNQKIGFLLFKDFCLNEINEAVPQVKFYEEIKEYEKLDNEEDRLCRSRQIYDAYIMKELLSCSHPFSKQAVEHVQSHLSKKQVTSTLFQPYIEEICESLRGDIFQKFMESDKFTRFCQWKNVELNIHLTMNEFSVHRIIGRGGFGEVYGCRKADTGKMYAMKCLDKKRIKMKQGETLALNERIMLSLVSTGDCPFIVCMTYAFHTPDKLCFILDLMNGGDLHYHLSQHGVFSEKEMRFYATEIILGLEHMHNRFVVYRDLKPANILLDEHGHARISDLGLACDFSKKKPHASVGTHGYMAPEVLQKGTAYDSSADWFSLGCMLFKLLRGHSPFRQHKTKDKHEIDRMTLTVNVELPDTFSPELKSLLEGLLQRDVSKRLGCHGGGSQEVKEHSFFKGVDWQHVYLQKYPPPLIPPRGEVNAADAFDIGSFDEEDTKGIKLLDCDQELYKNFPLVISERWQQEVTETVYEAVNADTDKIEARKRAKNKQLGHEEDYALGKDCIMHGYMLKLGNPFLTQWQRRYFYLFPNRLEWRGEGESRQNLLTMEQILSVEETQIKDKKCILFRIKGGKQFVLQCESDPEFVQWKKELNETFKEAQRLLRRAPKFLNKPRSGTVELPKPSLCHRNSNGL
Insulin-like growth factor 1 receptor (Homo sapiens), sequence (P08069 31-736 limits assumed): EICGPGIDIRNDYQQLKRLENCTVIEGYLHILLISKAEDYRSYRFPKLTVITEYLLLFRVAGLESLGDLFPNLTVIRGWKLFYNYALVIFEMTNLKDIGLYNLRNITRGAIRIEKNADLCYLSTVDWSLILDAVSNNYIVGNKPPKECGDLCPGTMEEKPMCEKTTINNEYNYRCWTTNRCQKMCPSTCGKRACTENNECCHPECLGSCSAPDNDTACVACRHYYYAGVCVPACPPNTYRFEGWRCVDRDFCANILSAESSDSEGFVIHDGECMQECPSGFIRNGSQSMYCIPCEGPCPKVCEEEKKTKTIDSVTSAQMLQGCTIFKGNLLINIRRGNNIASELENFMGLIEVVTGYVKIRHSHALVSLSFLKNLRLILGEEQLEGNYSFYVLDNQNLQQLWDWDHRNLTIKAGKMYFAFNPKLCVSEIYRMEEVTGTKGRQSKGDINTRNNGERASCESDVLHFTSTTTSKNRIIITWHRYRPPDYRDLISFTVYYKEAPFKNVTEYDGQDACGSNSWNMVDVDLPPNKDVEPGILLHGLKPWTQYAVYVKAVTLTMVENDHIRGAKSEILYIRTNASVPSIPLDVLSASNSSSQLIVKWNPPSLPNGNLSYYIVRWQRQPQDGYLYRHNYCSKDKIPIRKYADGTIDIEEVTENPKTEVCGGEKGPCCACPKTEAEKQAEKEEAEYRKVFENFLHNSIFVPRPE
Insulin-like growth factor 1 receptor (Homo sapiens), sequence (P08069 741-1367 limits assumed): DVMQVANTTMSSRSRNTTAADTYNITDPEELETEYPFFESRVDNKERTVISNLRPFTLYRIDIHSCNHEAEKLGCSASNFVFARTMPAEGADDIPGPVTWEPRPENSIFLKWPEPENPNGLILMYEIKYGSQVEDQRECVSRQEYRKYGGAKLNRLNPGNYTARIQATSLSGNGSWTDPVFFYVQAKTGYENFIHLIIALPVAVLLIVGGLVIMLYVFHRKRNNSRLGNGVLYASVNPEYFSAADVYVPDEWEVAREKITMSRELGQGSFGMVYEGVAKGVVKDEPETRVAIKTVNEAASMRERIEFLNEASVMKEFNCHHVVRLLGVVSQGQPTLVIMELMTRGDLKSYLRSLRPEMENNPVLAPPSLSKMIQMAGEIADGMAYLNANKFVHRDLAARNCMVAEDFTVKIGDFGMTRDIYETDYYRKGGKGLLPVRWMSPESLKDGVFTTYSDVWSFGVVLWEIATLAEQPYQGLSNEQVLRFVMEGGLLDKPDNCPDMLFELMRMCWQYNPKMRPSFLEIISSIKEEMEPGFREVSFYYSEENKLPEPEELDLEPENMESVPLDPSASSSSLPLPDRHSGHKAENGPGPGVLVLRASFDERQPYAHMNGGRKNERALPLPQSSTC
Mitogen-activated protein kinase 10 (Homo sapiens), sequence (P53779 whole entry): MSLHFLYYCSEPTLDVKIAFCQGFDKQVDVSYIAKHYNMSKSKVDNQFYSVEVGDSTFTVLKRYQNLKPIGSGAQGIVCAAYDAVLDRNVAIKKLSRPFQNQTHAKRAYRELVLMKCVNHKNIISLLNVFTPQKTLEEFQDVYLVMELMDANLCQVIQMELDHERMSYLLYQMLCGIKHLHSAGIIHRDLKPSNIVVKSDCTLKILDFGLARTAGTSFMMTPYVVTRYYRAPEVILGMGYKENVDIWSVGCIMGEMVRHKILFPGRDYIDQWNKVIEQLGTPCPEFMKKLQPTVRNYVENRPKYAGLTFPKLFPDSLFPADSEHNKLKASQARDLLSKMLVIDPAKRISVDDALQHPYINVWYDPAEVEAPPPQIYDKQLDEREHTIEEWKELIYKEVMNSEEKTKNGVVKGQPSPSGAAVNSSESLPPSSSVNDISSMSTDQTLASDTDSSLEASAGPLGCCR
Myosin light chain kinase (Homo sapiens), sequence (Q32MK0 whole entry): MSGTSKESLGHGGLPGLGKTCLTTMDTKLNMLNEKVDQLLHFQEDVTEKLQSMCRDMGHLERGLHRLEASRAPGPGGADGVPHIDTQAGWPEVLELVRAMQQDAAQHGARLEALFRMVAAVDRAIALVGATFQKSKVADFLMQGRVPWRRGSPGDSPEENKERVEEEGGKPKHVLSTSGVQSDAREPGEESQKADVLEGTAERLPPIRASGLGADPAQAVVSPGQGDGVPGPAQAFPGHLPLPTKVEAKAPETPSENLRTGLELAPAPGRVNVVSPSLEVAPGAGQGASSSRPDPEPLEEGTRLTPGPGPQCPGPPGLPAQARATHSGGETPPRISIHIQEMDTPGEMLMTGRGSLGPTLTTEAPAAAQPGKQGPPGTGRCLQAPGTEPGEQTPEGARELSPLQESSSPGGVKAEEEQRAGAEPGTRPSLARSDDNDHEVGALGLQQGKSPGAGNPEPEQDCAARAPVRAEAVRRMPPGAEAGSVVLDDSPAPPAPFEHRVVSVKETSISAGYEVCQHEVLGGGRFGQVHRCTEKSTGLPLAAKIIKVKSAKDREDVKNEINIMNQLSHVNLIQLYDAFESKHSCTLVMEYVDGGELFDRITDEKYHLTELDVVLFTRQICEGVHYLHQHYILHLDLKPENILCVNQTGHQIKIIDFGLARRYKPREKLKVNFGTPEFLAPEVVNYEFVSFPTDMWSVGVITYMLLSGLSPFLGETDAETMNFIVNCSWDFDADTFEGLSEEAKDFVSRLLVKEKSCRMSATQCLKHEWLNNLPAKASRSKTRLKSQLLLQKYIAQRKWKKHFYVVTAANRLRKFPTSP
cGMP-dependent protein kinase 2 (Homo sapiens), sequence (Q13237 whole entry): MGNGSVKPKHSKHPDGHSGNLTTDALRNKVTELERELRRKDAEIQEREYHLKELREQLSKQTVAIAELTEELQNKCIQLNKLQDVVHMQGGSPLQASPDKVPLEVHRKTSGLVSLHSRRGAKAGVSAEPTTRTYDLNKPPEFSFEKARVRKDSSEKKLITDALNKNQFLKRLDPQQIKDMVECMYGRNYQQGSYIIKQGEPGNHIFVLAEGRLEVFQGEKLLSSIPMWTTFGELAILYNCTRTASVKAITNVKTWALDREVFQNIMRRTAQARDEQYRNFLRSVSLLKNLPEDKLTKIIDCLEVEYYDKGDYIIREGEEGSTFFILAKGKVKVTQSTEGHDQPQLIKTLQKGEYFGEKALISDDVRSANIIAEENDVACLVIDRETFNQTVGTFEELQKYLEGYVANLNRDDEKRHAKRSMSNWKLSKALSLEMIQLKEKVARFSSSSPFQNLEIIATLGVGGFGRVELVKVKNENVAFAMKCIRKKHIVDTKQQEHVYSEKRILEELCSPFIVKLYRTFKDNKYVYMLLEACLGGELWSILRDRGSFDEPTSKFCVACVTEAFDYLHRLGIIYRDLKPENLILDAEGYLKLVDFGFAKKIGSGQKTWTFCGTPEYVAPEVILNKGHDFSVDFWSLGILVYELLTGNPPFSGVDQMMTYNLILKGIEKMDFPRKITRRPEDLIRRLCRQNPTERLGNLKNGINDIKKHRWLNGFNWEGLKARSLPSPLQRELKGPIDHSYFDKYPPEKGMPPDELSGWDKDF
Homeodomain-interacting protein kinase 4 (Homo sapiens), sequence (Q8NE63 whole entry): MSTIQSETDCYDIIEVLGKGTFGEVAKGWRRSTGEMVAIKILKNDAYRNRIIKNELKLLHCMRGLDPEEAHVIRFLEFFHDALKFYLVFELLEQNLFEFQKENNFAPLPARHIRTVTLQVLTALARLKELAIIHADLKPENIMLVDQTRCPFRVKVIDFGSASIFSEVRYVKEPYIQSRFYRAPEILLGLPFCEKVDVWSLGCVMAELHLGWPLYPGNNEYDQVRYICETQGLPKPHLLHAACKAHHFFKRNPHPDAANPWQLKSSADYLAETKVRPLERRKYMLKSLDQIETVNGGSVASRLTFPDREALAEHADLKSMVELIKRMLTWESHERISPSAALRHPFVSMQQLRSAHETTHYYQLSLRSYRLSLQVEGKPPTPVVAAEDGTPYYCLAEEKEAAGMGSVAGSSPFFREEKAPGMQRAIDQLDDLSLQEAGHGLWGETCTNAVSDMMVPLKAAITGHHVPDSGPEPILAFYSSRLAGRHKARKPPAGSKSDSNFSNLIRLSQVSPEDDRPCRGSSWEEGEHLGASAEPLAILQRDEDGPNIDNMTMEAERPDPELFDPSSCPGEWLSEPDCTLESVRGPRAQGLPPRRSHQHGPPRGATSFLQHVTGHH

Which inhibition [1] does the source give for `O=c1n(Cc2cncn2-c2cccc(Cl)c2)nc(-c2ccc(Cl)cc2)n1C[C@H](O)C(F)(F)F` here?
The inhibition was -6.67%.

What about the inhibition [2] of the same compound?
The inhibition was -1.89%.

And the inhibition [3]?
Its inhibition is 1.4%.

What about the inhibition [4] of the same compound?
The inhibition was 11.7%.

What about the inhibition [5] of the same compound?
Its inhibition is -3.13%.

And the inhibition [6]?
The inhibition was 4.55%.

And the inhibition [7]?
Its inhibition is -4.33%.

What about the inhibition [8] of the same compound?
Its inhibition is 2.81%.

And the inhibition [9]?
Its inhibition is 13.2%.

And the inhibition [10]?
The inhibition was 1.74%.

What about the inhibition [11] of the same compound?
The inhibition was 1.06%.

And the inhibition [12]?
The inhibition was 6.13%.

What about the inhibition [13] of the same compound?
Its inhibition is -3.28%.

And the inhibition [14]?
Its inhibition is -2.44%.

What about the inhibition [15] of the same compound?
The inhibition was 0.1%.

And the inhibition [16]?
The inhibition was 24.1%.

And the inhibition [17]?
The inhibition was 1%.

What about the inhibition [18] of the same compound?
Its inhibition is -1%.

And the inhibition [19]?
Its inhibition is 19%.

Which inhibition [1] does the source give for `C[C@H](O)c1nc(Cn2nc(-c3ccc(Cl)cc3)n(C[C@H](O)C(F)(F)F)c2=O)nn1-c1cccc(Cl)c1` [PECAVAPTAN] here?
Its inhibition is -6.9%.

What about the inhibition [2] of the same compound?
The inhibition was 5.63%.

What about the inhibition [3] of the same compound?
Its inhibition is -0.38%.

What about the inhibition [4] of the same compound?
Its inhibition is -2.55%.

And the inhibition [5]?
Its inhibition is 2.8%.

And the inhibition [6]?
Its inhibition is -3.59%.

What about the inhibition [7] of the same compound?
The inhibition was -6.92%.

And the inhibition [8]?
The inhibition was -1.87%.

What about the inhibition [9] of the same compound?
Its inhibition is 0.72%.

What about the inhibition [10] of the same compound?
Its inhibition is 1.69%.

And the inhibition [11]?
The inhibition was 2.11%.

And the inhibition [12]?
Its inhibition is 0.99%.

And the inhibition [13]?
The inhibition was -2.94%.

And the inhibition [14]?
Its inhibition is -4.35%.

What about the inhibition [15] of the same compound?
The inhibition was 16.1%.

What about the inhibition [16] of the same compound?
The inhibition was 27%.

And the inhibition [17]?
Its inhibition is -5%.

And the inhibition [18]?
The inhibition was -2%.

And the inhibition [19]?
Its inhibition is 4%.
